Assay results: patent US12473287B2, “Synthetic co-crystals of anhydrous guanine and process for preparing the same” (EcoCrystal Ltd., priority 2016, dated 2025)
Where “and” joins values, the source holds several entries; their conditions need not be identical. Identical values can stand only once.

Key:
[1] = in the reflected direction; known values; cited from earlier work
[2] = Dry storage stability at ambient conditions (FT-IR); type: physicochemical; conditions: stored dry at ambient conditions; FT-IR fresh vs 3 months old
Description: FIG. 5 presents FT-IR spectra, showing fresh guanine monohydrate (top) vs 3 months old guanine monohydrate. Only small differences in the peak intensities are visible after 3 months. The typical signatures of structured water are still present (ν1, and ν3 stretching modes (broad peaks at 3420 and 3200 cm^−1) and ν2 bending mode (1596 cm^−1)).

stability, solid to solid transformation [2] | SMILES | refractive index n [1]
– | Nc1nc2nc[nH]c2c(=O)[nH]1 [Anhydrous guanine, guanine] | 1.83 and 1.81
stable for at least several months | Nc1nc2nc[nH]c2c(=O)[nH]1.O [guanine monohydrate] | –
